Values belong to the compound of their own block, whether it stands above or below them. Activity calls are given as the source filed them.
Experiments:
[1] = biological target: Photoreceptor-specific nuclear receptor (Homo sapiens, UniProt Q9Y5X4); format: functional;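 further: potency for compounds that break the NR2E3 corepressor complex and count as activators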
[2] = biological target: Peroxisome proliferator-activated receptor gamma/Nuclear receptor corepressor 2 (Homo sapiens, UniProt P37231+Q9Y618); format: functional
Peroxisome proliferator-activated receptor gamma/Nuclear receptor corepressor 2, sequence (P37231 whole entry): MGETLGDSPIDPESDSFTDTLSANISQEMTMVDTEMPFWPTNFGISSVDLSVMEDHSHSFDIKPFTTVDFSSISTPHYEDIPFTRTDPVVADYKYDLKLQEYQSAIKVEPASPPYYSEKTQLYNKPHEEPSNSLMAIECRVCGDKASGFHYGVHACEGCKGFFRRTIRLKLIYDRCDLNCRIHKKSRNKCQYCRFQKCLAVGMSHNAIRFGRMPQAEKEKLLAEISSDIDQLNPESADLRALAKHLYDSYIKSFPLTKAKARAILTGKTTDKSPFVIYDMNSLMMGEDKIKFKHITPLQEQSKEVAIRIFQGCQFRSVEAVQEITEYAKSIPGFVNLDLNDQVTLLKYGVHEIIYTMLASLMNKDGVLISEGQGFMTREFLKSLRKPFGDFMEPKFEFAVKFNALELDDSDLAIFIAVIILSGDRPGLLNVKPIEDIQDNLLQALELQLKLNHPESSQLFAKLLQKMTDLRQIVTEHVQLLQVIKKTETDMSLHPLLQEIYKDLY
Peroxisome proliferator-activated receptor gamma/Nuclear receptor corepressor 2, sequence (Q9Y618 whole entry): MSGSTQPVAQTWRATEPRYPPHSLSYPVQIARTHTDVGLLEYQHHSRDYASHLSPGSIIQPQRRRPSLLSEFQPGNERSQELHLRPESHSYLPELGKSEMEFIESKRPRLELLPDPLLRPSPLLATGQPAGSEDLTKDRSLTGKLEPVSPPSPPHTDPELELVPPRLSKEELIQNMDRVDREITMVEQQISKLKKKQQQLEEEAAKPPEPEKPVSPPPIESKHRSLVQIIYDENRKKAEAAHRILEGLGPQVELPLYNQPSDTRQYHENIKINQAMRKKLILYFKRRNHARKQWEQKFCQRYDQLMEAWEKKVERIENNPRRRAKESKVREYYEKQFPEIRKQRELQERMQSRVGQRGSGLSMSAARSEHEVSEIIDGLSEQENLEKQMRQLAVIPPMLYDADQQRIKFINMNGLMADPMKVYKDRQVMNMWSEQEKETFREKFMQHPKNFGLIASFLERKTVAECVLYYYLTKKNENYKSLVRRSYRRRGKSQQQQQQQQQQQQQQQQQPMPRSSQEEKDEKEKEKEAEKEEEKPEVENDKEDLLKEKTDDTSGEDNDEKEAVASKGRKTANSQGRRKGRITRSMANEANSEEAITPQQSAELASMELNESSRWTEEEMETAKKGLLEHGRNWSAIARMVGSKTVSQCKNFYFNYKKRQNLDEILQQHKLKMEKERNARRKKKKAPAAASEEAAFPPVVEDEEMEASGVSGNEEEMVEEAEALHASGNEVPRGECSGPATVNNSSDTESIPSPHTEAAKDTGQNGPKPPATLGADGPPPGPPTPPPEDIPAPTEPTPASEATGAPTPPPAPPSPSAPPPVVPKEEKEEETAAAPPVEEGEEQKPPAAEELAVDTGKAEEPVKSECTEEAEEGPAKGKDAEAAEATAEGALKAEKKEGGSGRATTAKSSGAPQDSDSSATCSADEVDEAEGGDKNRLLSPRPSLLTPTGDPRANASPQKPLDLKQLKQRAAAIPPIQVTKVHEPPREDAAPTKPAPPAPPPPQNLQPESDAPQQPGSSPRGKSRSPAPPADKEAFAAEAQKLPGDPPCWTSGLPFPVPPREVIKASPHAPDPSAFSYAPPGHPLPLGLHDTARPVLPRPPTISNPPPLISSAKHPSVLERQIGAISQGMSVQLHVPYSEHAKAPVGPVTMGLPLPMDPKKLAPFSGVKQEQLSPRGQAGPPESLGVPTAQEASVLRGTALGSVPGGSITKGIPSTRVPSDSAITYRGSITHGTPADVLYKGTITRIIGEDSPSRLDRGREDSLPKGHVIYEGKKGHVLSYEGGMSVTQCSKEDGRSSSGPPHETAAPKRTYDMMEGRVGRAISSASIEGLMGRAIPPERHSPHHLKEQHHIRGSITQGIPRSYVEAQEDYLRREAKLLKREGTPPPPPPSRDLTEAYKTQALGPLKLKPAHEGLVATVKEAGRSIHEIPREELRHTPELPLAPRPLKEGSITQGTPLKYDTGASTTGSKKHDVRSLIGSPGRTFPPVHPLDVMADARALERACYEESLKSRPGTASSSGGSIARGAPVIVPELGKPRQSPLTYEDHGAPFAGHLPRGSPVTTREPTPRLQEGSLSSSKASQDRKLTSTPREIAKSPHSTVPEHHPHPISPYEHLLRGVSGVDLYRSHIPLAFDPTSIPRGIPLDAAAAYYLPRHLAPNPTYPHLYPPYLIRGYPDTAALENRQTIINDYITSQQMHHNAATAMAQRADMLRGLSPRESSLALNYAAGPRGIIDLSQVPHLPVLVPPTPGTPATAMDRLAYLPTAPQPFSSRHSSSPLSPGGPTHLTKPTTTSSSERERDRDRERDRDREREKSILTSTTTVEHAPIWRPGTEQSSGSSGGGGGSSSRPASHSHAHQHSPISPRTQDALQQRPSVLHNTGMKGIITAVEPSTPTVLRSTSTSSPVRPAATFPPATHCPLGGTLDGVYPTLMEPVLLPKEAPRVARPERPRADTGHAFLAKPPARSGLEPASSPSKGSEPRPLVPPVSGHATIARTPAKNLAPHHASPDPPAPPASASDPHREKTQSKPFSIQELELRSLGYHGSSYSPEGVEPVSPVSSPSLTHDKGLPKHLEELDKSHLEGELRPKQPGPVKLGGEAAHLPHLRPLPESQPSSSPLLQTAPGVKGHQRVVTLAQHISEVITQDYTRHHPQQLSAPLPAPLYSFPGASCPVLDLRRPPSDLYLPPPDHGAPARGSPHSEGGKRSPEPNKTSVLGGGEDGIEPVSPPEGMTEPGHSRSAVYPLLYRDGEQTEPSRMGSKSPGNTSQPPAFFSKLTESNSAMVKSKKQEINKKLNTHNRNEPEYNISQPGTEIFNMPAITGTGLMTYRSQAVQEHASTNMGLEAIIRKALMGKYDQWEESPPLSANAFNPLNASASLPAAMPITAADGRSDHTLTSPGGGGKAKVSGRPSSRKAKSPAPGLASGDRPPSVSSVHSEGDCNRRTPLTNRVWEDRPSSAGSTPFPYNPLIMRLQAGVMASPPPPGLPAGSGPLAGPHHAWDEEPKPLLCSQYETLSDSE

[3] = biological target: T1, Heat shock factor protein 1 (Mus musculus, UniProt P38532); assay: enhancement of HSF1-driven luciferase signal – cell-based, NIH3T3, luminescence, dose retest, confirmation (AID 435004); format: functional;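 further: stress induced by proteasome inhibitor MG132 added 30 min after compound; luciferase reporter driven by HSF1 response element in NIH3T3 cells; actives raise luminescence as potentiators of the MG132 stress response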
T1 sequence (P38532 whole entry): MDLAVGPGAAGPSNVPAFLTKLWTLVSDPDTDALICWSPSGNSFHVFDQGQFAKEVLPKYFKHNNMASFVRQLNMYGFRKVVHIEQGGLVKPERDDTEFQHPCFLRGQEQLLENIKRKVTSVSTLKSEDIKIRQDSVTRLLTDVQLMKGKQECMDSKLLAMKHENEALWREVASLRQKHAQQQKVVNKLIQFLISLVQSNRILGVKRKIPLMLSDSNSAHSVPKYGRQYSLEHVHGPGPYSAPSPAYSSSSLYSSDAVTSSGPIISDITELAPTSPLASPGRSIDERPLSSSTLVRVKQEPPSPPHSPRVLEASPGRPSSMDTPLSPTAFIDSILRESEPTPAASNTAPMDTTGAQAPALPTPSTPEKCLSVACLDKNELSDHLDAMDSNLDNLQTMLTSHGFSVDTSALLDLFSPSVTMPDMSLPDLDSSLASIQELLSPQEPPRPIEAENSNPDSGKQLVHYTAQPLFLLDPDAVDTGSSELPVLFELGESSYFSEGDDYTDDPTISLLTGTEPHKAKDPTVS

Cytochrome P450 2C9 = Cytochrome P450 2C9 (Homo sapiens, UniProt P11712); conditions: Potency
[4] = Trypanosoma cruzi growth suppression in host cells – NIH3T3 host cells, beta-gal luminescence, confirmation (AID 2044); format: functional, cell-based;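 further: intracellular parasites grown in NIH/3T3 mouse fibroblasts as host cells; luminescent beta-galactosidase reporter signal from transgenic T. cruzi replicating inside host cells; inhibitors lower the luminescence signal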
[5] = NIH3T3 cell viability loss – ATP luminescence, mouse fibroblasts, counter-screen, dose response (AID 2010); format: functional, cell-based;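 further: cells exposed to compound for about 90 hours before reading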
[6] = biological target: Neurotensin receptor type 1 (Homo sapiens, UniProt P30989); format: functional;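 further: Image-based confirmatory dose-response assay measuring agonist activity at NTR1; NTR1-expressing U2OS osteosarcoma cells imaged for beta-arrestin GFP spot formation; agonist potency where compounds increase beta-arrestin recruitment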
[7] = biological target: C-C chemokine receptor type 6 (Homo sapiens, UniProt P51684); assay: antagonism of CCR6 beta-arrestin recruitment – cell-based, luminescent beta-arrestin readout, dose response (AID 504728); format: functional
C-C chemokine receptor type 6, sequence (P51684 whole entry): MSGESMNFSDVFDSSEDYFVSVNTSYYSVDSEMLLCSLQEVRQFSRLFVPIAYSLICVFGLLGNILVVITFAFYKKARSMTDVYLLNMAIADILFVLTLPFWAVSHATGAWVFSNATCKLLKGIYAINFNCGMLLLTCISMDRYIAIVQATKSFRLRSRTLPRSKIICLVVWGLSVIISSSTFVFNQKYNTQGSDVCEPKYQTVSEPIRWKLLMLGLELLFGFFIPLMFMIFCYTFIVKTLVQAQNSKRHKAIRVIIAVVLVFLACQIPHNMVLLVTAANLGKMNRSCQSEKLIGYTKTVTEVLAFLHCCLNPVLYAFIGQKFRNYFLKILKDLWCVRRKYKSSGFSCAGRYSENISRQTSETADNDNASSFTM

Beta-galactosidase = Beta-galactosidase (Escherichia coli, UniProt Q8VNN2); assay: detection-enzyme interference by beta-gal modulators – biochemical, E. coli enzyme, set 3, artefact control for CCR6 antagonist project, dose response (AID 504712); format: functional
[8] = biological target: T2, Short transient receptor potential channel 4 (Mus musculus, UniProt Q9QUQ5); assay: calcium entry via TRPC4 opening agents – cell-based, HEK293 TRPC4/mu-opioid, Fluo-4 calcium, dose response (AID 434937); format: functional
T2 sequence (Q9QUQ5 whole entry): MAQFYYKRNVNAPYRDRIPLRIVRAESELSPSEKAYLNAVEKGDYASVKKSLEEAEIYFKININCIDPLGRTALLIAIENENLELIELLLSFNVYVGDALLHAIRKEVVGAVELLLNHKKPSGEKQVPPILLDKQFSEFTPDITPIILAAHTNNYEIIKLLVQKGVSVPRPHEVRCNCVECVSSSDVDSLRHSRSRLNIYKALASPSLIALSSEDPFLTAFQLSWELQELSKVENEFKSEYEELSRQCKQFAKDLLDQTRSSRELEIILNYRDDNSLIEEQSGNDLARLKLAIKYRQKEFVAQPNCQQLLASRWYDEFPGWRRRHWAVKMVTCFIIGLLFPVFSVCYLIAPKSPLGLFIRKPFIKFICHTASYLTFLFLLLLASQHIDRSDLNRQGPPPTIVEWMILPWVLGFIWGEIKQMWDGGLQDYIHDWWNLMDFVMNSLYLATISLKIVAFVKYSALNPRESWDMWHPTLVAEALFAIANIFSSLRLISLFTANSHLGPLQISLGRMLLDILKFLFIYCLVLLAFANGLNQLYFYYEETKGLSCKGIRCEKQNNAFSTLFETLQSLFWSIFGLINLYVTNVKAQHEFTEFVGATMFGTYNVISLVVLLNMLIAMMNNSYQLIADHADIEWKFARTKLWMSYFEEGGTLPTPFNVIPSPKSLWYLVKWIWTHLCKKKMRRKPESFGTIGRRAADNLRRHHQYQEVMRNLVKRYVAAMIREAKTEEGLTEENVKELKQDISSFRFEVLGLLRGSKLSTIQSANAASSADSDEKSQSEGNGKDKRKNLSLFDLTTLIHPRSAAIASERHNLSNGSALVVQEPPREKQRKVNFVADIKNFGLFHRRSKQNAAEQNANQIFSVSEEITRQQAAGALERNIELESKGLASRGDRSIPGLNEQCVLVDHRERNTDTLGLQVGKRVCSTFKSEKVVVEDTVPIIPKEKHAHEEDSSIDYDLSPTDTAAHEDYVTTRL

[9] = biological target: Mothers against decapentaplegic homolog 3 (Homo sapiens, UniProt P84022); assay: blockers of Smad3 complex formation in lysate – cell lysate, secondary confirmation, chemiluminescent ELISA, HEK293 lysate, dose response (AID 1058); format: functional
Mucolipin-3 = Mucolipin-3 (Homo sapiens, UniProt Q8TDD5); assay: Dose response cell-based high-throughput screening assay for agonists of the transient receptor potential channel ML3 (TRPML3). [Related pubchem assays: 1526, 1424, 1448 ]; format: functional
Ion channel NompC [10] = biological target: T3, Ion channel NompC (Danio rerio, UniProt Q7T1G6); assay: Fluorescence counterscreen assay for TRPML3 agonists: dose response cell-based high-throughput screening assay to identify agonists of the transient receptor potential channel N1 (TRPN1). [Related pubchem assays: 1526, 1424, 1448 ]; format: functional
T3 sequence (Q7T1G6 whole entry): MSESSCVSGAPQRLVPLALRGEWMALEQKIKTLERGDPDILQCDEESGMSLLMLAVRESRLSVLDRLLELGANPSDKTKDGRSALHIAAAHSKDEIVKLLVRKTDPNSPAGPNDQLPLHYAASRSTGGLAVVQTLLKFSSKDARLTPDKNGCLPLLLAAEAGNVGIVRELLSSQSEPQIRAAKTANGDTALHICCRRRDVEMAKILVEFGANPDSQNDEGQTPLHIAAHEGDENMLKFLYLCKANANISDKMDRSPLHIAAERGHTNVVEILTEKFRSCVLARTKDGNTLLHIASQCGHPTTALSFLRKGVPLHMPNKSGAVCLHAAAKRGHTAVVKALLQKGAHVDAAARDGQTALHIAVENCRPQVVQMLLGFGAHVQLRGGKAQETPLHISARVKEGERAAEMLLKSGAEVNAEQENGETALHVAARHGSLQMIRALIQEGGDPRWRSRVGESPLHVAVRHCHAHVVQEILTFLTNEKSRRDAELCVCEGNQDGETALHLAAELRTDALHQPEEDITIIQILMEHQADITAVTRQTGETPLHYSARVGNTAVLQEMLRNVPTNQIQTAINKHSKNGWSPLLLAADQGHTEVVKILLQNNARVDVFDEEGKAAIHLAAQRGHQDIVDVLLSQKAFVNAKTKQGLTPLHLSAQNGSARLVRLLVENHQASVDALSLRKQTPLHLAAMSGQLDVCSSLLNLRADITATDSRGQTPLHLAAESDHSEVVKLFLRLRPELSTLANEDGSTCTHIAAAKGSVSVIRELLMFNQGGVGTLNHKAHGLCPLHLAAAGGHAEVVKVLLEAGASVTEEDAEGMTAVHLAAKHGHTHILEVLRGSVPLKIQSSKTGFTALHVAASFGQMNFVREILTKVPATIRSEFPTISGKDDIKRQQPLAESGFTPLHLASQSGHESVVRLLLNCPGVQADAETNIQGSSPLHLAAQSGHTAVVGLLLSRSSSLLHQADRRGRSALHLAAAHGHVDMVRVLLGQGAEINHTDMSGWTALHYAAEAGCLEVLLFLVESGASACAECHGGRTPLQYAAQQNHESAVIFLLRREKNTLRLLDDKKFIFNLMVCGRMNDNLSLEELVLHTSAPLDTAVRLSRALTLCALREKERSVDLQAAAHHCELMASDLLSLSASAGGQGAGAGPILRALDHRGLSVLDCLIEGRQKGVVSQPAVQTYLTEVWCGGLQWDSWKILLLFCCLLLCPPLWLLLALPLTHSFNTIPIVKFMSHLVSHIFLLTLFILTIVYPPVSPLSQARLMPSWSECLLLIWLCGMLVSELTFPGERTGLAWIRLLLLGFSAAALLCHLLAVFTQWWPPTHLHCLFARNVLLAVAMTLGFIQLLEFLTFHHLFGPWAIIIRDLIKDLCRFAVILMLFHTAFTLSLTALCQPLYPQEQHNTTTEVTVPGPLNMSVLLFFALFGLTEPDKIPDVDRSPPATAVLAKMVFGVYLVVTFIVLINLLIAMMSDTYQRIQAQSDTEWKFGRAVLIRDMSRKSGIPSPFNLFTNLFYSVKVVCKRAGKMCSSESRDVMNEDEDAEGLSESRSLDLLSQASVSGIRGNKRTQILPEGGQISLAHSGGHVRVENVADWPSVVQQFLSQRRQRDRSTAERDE

Ion channel NompC [11] = biological target: T3, Ion channel NompC; assay: activators of mucolipin-3 and mucolipin-2 – cell-based, […], Fura-2 profiling panel, panel member TRPN1 Dose Response (AID 2116)
[12] = biological target: T4, Corticotropin-releasing factor receptor 2/Corticotropin-releasing factor-binding protein (Homo sapiens, UniProt P24387+Q13324); assay: activators of CRF receptor 2 with binding protein – uHTS hits, confirmation (AID 602473); format: functional; conditions: read-out: EC50_Mean
T4 sequence (Q13324 whole entry): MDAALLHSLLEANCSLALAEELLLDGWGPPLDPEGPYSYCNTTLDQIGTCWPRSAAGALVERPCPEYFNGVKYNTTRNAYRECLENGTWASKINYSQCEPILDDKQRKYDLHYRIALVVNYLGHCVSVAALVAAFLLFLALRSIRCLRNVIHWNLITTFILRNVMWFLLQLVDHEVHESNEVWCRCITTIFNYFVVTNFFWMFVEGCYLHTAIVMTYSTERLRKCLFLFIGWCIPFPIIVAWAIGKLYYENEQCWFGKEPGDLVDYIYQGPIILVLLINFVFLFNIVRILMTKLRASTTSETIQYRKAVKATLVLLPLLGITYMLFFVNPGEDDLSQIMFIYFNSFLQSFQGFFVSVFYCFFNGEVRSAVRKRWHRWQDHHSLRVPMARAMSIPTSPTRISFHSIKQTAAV
T4 sequence (P24387 whole entry): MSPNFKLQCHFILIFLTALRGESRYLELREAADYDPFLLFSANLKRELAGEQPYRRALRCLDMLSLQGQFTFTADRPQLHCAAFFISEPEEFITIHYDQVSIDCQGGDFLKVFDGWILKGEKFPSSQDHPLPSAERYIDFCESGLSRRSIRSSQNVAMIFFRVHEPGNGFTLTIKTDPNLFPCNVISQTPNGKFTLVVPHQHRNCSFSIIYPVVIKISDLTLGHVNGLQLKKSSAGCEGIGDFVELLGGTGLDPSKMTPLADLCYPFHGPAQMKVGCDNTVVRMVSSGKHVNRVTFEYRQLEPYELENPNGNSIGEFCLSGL

Compound: COc1cc(C2C(C(=O)c3cc4ccccc4o3)=C(O)C(=O)N2c2cc(C)on2)cc(OC)c1OC (stereo not given)
IC50 [1]: > 39.8 µM (not active)
IC50 [2]: 4.1 µM (active)
EC50 [3]: > 260 µM (inactive)

Compound: O=C(Nc1ccc([N+](=O)[O-])cc1)Nc1ccc(N2CCOCC2)c2nonc12
EC50 [4]: 3.77 µM (active)
EC50 [5]: > 30 µM (not active)
EC50 [6]: > 40 µM (inactive)

Compound: CN(C)C(CNc1ccc(C(F)(F)F)cn1)c1ccccc1 (stereo not given)
IC50 [7]: > 66.6 µM (inactive)
IC50 (Beta-galactosidase): > 66.6 µM (inactive)
EC50 [8]: 2.11 µM (active)

Compound: COc1cccc(C(c2cc3c(cc2O)OCO3)N2CCN(C(c3cc4c(cc3O)OCO4)c3cccc(OC)c3O)CC2)c1O (stereo not given)
IC50 [9]: > 40 µM (not active)

Now from value to compound:

AC50 (Cytochrome P450 2C9): 5.01 µM (inconclusive)
Compound: COC(=O)C12CC3(CCC4C5C(C(OCc6ccccc6)C41)C52)OCCO3 (stereo not given)

EC50 (Mucolipin-3): 0.823 µM (active)
EC50 (Ion channel NompC [10]): > 29.9 µM (not active)
EC50 (Ion channel NompC [11]): 14 µM (inactive)
EC50 [12]: 13.7 µM (active)
Compound: O=S(=O)(NC1CCCCC1N1CCOCC1)c1ccc(Cl)cc1 (stereo not given)
